The source made the active and inactive calls. The rule behind the calls is not given here.
Experiments:
[1] = Induction of apoptosis in tumor promotion-sensitive mouse JB6 Cl41 cells assessed as viable cells at 5 uM after 24 hrs by Annexin-V-FITC/propidium iodide staining based flow cytometry (reference value: 94.33 +/- 0.87%); format: cell-based; conditions: read-out: Activity
[2] = Induction of apoptosis in tumor promotion-sensitive mouse JB6 Cl41 cells assessed as early apoptotic cells at 5 uM after 24 hrs by Annexin-V-FITC/propidium iodide staining based flow cytometry (reference value: 2.15 +/- 1.18%); format: cell-based; conditions: jb6 cl41, 24 h
HeLa [3] = assay: Induction of p53-independent apoptosis in human HeLa cells assessed as late apoptotic/necrotic cells at 10 uM after 24 hrs by Annexin-V-FITC/propidium iodide double staining based flow cytometry (reference value: 0.88 +/- 0.72%); format: functional
HeLa [4] = assay: Induction of p53-independent apoptosis in human HeLa cells assessed as dead cells at 2.5 uM after 24 hrs by Annexin-V-FITC/propidium iodide double staining based flow cytometry (reference value: 3.89 +/- 0.3%); format: functional
[5] = Induction of apoptosis in tumor promotion-sensitive mouse JB6 Cl41 cells assessed as dead cells at 5 uM after 24 hrs by Annexin-V-FITC/propidium iodide staining based flow cytometry (reference value: 2.99 +/- 0.82%); format: cell-based; conditions: jb6 cl41, 24 h
[6] = Induction of apoptosis in tumor promotion-sensitive mouse JB6 Cl41 cells assessed as dead cells at 10 uM after 24 hrs by Annexin-V-FITC/propidium iodide staining based flow cytometry (reference value: 2.99 +/- 0.82%); format: cell-based; conditions: jb6 cl41, 24 h
HeLa [7] = assay: Cytotoxicity against human HeLa cells assessed as cell viability after 24 hrs by MTS assay; format: functional, cell-based
HeLa [8] = assay: Induction of p53-independent apoptosis in human HeLa cells assessed as viable cells at 10 uM after 24 hrs by Annexin-V-FITC/propidium iodide double staining based flow cytometry (reference value: 88.52 +/- 11%); format: functional; conditions: read-out: Activity
[9] = Induction of apoptosis in tumor promotion-sensitive mouse JB6 Cl41 cells assessed as dead cells at 2.5 uM after 24 hrs by Annexin-V-FITC/propidium iodide staining based flow cytometry (reference value: 2.99 +/- 0.82%); format: cell-based; conditions: jb6 cl41, 24 h
[10] = Induction of apoptosis in tumor promotion-sensitive mouse JB6 Cl41 cells assessed as late apoptotic/necrotic cells at 2.5 uM after 24 hrs by Annexin-V-FITC/propidium iodide staining based flow cytometry (reference value: 0.53 +/- 0.47%); format: cell-based; conditions: jb6 cl41, 24 h
HeLa [11] = assay: Induction of p53-independent apoptosis in human HeLa cells assessed as late apoptotic/necrotic cells at 20 uM after 24 hrs by Annexin-V-FITC/propidium iodide double staining based flow cytometry (reference value: 0.88 +/- 0.72%); format: functional
HeLa [12] = assay: Induction of p53-independent apoptosis in human HeLa cells assessed as dead cells at 5 uM after 24 hrs by Annexin-V-FITC/propidium iodide double staining based flow cytometry (reference value: 3.89 +/- 0.3%); format: functional
HeLa [13] = assay: Induction of p53-independent apoptosis in human HeLa cells assessed as early apoptotic cells at 10 uM after 24 hrs by Annexin-V-FITC/propidium iodide double staining based flow cytometry (reference value: 6.71 +/- 4.41%); format: functional
HeLa [14] = assay: Cytotoxicity against human HeLa cells assessed as cell viability after 48 hrs by MTS assay; format: functional, cell-based
[15] = Cytotoxicity against tumor promotion-sensitive mouse JB6 Cl41 cells assessed as cell viability after 48 hrs by MTS assay; format: cell-based; conditions: JB6 Cl41, 48 h
HeLa [16] = assay: Induction of p53-independent apoptosis in human HeLa cells assessed as viable cells at 2.5 uM after 24 hrs by Annexin-V-FITC/propidium iodide double staining based flow cytometry (reference value: 88.52 +/- 11%); format: functional; conditions: read-out: Activity
HeLa [17] = assay: Induction of p53-independent apoptosis in human HeLa cells assessed as dead cells at 20 uM after 24 hrs by Annexin-V-FITC/propidium iodide double staining based flow cytometry (reference value: 3.89 +/- 0.3%); format: functional
[18] = target: Cellular tumor antigen p53 (Mus musculus) (UniProt P02340); assay: Inhibition of p53-dependent transcriptional activity in tumor promotion-sensitive mouse JB6 Cl41 cells after 12 hrs by luciferase-based method; format: cell-based
Sequence of Cellular tumor antigen p53 (Mus musculus) (P02340 whole entry): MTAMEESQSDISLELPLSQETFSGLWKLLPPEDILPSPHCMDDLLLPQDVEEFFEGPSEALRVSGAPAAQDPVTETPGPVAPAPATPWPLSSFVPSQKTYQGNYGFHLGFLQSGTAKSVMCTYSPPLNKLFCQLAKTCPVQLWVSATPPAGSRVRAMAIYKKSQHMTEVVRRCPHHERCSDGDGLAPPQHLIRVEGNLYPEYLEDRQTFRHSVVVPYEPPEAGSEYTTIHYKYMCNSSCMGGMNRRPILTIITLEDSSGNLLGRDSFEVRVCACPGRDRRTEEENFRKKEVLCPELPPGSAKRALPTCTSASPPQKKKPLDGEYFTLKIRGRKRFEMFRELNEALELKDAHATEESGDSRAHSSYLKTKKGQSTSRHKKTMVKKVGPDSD

HeLa [19] = assay: Cytotoxicity against human HeLa cells assessed as inhibition of number of colonies formed in soft agar after 14 days by microscopic analysis; format: functional
[20] = Induction of apoptosis in tumor promotion-sensitive mouse JB6 Cl41 cells assessed as early apoptotic cells at 20 uM after 24 hrs by Annexin-V-FITC/propidium iodide staining based flow cytometry (reference value: 2.15 +/- 1.18%); format: cell-based; conditions: jb6 cl41, 24 h
[21] = Induction of apoptosis in tumor promotion-sensitive mouse JB6 Cl41 cells assessed as viable cells at 20 uM after 24 hrs by Annexin-V-FITC/propidium iodide staining based flow cytometry (reference value: 94.33 +/- 0.87%); format: cell-based; conditions: read-out: Activity
HeLa [22] = assay: Induction of p53-independent apoptosis in human HeLa cells assessed as dead cells at 10 uM after 24 hrs by Annexin-V-FITC/propidium iodide double staining based flow cytometry (reference value: 3.89 +/- 0.3%); format: functional
[23] = Induction of apoptosis in tumor promotion-sensitive mouse JB6 Cl41 cells assessed as viable cells at 10 uM after 24 hrs by Annexin-V-FITC/propidium iodide staining based flow cytometry (reference value: 94.33 +/- 0.87%); format: cell-based; conditions: read-out: Activity
HeLa [24] = assay: Induction of p53-independent apoptosis in human HeLa cells assessed as viable cells at 5 uM after 24 hrs by Annexin-V-FITC/propidium iodide double staining based flow cytometry (reference value: 88.52 +/- 11%); format: functional; conditions: read-out: Activity
[25] = Induction of apoptosis in tumor promotion-sensitive mouse JB6 Cl41 cells assessed as dead cells at 20 uM after 24 hrs by Annexin-V-FITC/propidium iodide staining based flow cytometry (reference value: 2.99 +/- 0.82%); format: cell-based; conditions: jb6 cl41, 24 h
HeLa [26] = assay: Induction of p53-independent apoptosis in human HeLa cells assessed as early apoptotic cells at 5 uM after 24 hrs by Annexin-V-FITC/propidium iodide double staining based flow cytometry (reference value: 6.71 +/- 4.41%); format: functional
[27] = Induction of apoptosis in tumor promotion-sensitive mouse JB6 Cl41 cells assessed as late apoptotic/necrotic cells at 5 uM after 24 hrs by Annexin-V-FITC/propidium iodide staining based flow cytometry (reference value: 0.53 +/- 0.47%); format: cell-based; conditions: jb6 cl41, 24 h
HeLa [28] = assay: Induction of p53-independent apoptosis in human HeLa cells assessed as early apoptotic cells at 2.5 uM after 24 hrs by Annexin-V-FITC/propidium iodide double staining based flow cytometry (reference value: 6.71 +/- 4.41%); format: functional
HeLa [29] = assay: Induction of p53-independent apoptosis in human HeLa cells assessed as late apoptotic/necrotic cells at 2.5 uM after 24 hrs by Annexin-V-FITC/propidium iodide double staining based flow cytometry (reference value: 0.88 +/- 0.72%); format: functional
[30] = Induction of apoptosis in tumor promotion-sensitive mouse JB6 Cl41 cells assessed as early apoptotic cells at 2.5 uM after 24 hrs by Annexin-V-FITC/propidium iodide staining based flow cytometry (reference value: 2.15 +/- 1.18%); format: cell-based; conditions: jb6 cl41, 24 h
[31] = Induction of apoptosis in tumor promotion-sensitive mouse JB6 Cl41 cells assessed as late apoptotic/necrotic cells at 20 uM after 24 hrs by Annexin-V-FITC/propidium iodide staining based flow cytometry (reference value: 0.53 +/- 0.47%); format: cell-based; conditions: jb6 cl41, 24 h
HeLa [32] = assay: Induction of p53-independent apoptosis in human HeLa cells assessed as viable cells at 20 uM after 24 hrs by Annexin-V-FITC/propidium iodide double staining based flow cytometry (reference value: 88.52 +/- 11%); format: functional; conditions: read-out: Activity
HeLa [33] = assay: Ratio of IC50 to INCC50 for human HeLa cells; format: functional
[34] = Induction of apoptosis in tumor promotion-sensitive mouse JB6 Cl41 cells assessed as late apoptotic/necrotic cells at 10 uM after 24 hrs by Annexin-V-FITC/propidium iodide staining based flow cytometry (reference value: 0.53 +/- 0.47%); format: cell-based; conditions: jb6 cl41, 24 h
HeLa [35] = assay: Induction of p53-independent apoptosis in human HeLa cells assessed as late apoptotic/necrotic cells at 5 uM after 24 hrs by Annexin-V-FITC/propidium iodide double staining based flow cytometry (reference value: 0.88 +/- 0.72%); format: functional
[36] = Induction of apoptosis in tumor promotion-sensitive mouse JB6 Cl41 cells assessed as early apoptotic cells at 10 uM after 24 hrs by Annexin-V-FITC/propidium iodide staining based flow cytometry (reference value: 2.15 +/- 1.18%); format: cell-based; conditions: jb6 cl41, 24 h
HeLa [37] = assay: Induction of p53-independent apoptosis in human HeLa cells assessed as early apoptotic cells at 20 uM after 24 hrs by Annexin-V-FITC/propidium iodide double staining based flow cytometry (reference value: 6.71 +/- 4.41%); format: functional
[38] = Induction of apoptosis in tumor promotion-sensitive mouse JB6 Cl41 cells assessed as viable cells at 2.5 uM after 24 hrs by Annexin-V-FITC/propidium iodide staining based flow cytometry (reference value: 94.33 +/- 0.87%); format: cell-based; conditions: read-out: Activity

## CO[C@H]1O[C@H](COC2=CC(=O)c3c(O)ccc(O)c3C2=O)[C@@H](O)[C@H](O)[C@H]1O
[1]
  viability at 24 h, 5 µM: 88.8%
[2]
  Activity: 1.8%
HeLa [3]
  Activity: 1.74%
HeLa [4]
  Activity: 2.8%
[5]
  Activity: 0.4%
[6]
  Activity: 3.17%
HeLa [7]
  IC50: 7.54 µM
HeLa [8]
  viability at 10 µM: 87.5%
[9]
  Activity: 2.99%
[10]
  Activity: 2.46%
HeLa [11]
  Activity: 24.44%
HeLa [12]
  Activity: 2.67%
HeLa [13]
  Activity: 7.99%
HeLa [14]
  IC50: 7.89 µM
[15]
  IC50: 8.47 µM
HeLa [16]
  viability at 2.5 µM: 87.4%
HeLa [17]
  Activity: 31.42%
[18]
  inhibition: Active
HeLa [19]
  INCC50: 4.03 µM
[20]
  Activity: 40.96%
[21]
  viability at 24 h, 20 µM: 13.4%
HeLa [22]
  Activity: 2.77%
[23]
  viability at 24 h, 10 µM: 87.5%
HeLa [24]
  viability at 5 µM: 89.5%
[25]
  Activity: 31.75%
HeLa [26]
  Activity: 6.44%
[27]
  Activity: 2.96%
HeLa [28]
  Activity: 8.28%
HeLa [29]
  Activity: 1.55%
[30]
  Activity: 1.84%
[31]
  Activity: 13.91%
HeLa [32]
  viability at 20 µM: 30.1%
HeLa [33]
  Ratio: 1.96
[34]
  Activity: 1.91%
HeLa [35]
  Activity: 1.35%
[36]
  Activity: 7.41%
HeLa [37]
  Activity: 14.06%
[38]
  viability at 24 h, 2.5 µM: 91.7%

## O=C1C=CC(=O)c2c(O)cccc21 [JUGLONE]
HeLa [7]
  IC50: 68.5 µM
HeLa [14]
  IC50: 65.5 µM
[15]
  IC50: 34.3 µM
[18]
  inhibition: Active
HeLa [19]
  INCC50: 39.04 µM
HeLa [33]
  Ratio: 1.67

## O=C1C=C(O)c2cccc(O)c2C1=O
HeLa [7]
  IC50: 124 µM
HeLa [14]
  IC50: 118 µM
[15]
  IC50: 193 µM
[18]
  inhibition: Active
HeLa [19]
  INCC50: 35.51 µM
HeLa [33]
  Ratio: 3.33

## O=C1C=C(O)c2c(O)cccc2C1=O
HeLa [7]
  IC50: 196 µM
HeLa [14]
  IC50: 187 µM
[15]
  IC50: > 200 µM
[18]
  inhibition: Active
HeLa [19]
  INCC50: 109.37 µM
HeLa [33]
  Ratio: 1.71

## COC1=CC(=O)c2c(O)cccc2C1=O
HeLa [7]
  IC50: 1.18 µM
HeLa [14]
  IC50: 1.29 µM
[15]
  IC50: 1.93 µM
[18]
  inhibition: Active
HeLa [19]
  INCC50: 0.59 µM
HeLa [33]
  Ratio: 2.19

## CO[C@H]1O[C@H](COC2=CC(=O)c3c(O)cccc3C2=O)[C@@H](O)[C@H](O)[C@H]1O
[1]
  viability at 24 h, 5 µM: 79.4%
[2]
  Activity: 15.33%
HeLa [3]
  Activity: 26.07%
HeLa [4]
  Activity: 3.47%
[5]
  Activity: 3.36%
[6]
  Activity: 1.76%
HeLa [7]
  IC50: 5.2 µM
HeLa [8]
  viability at 10 µM: 20.1%
[9]
  Activity: 2.35%
[10]
  Activity: 0.62%
HeLa [12]
  Activity: 2.73%
HeLa [13]
  Activity: 32.33%
HeLa [14]
  IC50: 5.22 µM
[15]
  IC50: 6.54 µM
HeLa [16]
  viability at 2.5 µM: 84.7%
[18]
  inhibition: Active
HeLa [19]
  INCC50: 1.68 µM
HeLa [22]
  Activity: 21.48%
[23]
  viability at 24 h, 10 µM: 13.3%
HeLa [24]
  viability at 5 µM: 82.8%
HeLa [26]
  Activity: 13.09%
[27]
  Activity: 1.93%
HeLa [28]
  Activity: 10.42%
HeLa [29]
  Activity: 1.44%
[30]
  Activity: 2.77%
HeLa [33]
  Ratio: 3.11
[34]
  Activity: 2.01%
HeLa [35]
  Activity: 1.38%
[36]
  Activity: 82.93%
[38]
  viability at 24 h, 2.5 µM: 94.3%
